{
  "source": "patent US20100158846A1",
  "about": "“HAIR-BINDING PEPTIDES” (E. I. DU PONT DE NEMOURS AND COMPANY, priority 2008, published 2010)",
  "conditions": "biotinylated peptide binding to gray human hair bundle; streptavidin-HRP/TMB, A450; calculated from Scatchard plots",
  "method": "Then, the streptavidin-horseradish peroxidase (HRP) conjugate (Pierce Chemical Co., Rockford, Ill.) was added to each well (1.0 μg per well), and incubated for 1 h at room temperature, followed by 6 times of washes with TBST. […] The results were plotted as A450 versus the concentration of peptide using GraphPad Prism 4.0 (GraphPad Software, Inc., San Diego, Calif.).",
  "data": [
    {"substance": "PLWRRITKRKLVRPVATLMWYWFTSKR-K(biotin)-NH2 [CXH-G2]", "values": [
      {"measurement": "MB50", "value": 72, "unit": "nM"}
    ]}
  ]
}
